In patent US20250235545A1, “POLYPEPTIDE CONJUGATE AND USE THEREOF” (SHANGHAI CHIXI BIOMEDICAL TECHNOLOGY CO., LTD, priority 2024, published 2025):
Values after ≈ are worked out from the molar mass of the structure shown. Like-named read-outs stand apart in the source and are kept apart here. Where a SMILES comes first, the peptide text is derived from it. The star is where a group is joined. X2 = CCCCN(CCc1c2c(nc3ccccc13)-c1cc3c(c(=O)n1C2)COC(=O)[C@]3(O)CC)*; X4 = CCCN(CCc1c2c(nc3ccccc13)-c1cc3c(c(=O)n1C2)COC(=O)[C@]3(O)CC)*; Propanoyl(3-maleimido) = O=C1C=CC(=O)N1CCC(=O)*; PEG6 = NCCOCCOCCOCCOCCOCCOCCC(=O)O

How the values were obtained:
[1] = system: sarcoma SJSA-1 tumor model
Method in brief: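 SJSA-1 cells (2×10^7, DMEM/10% FBS, under 15 passages) implanted subcutaneously in right chest of female BALB/c nude mice, 6-8 weeks old. At ≥100 mm^3, randomized three per group; dosing once weekly for three weeks, saline as control, day 1 = first treatment.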

[2] = system: colo320 colorectal cancer tumor model
Method in brief: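 Female BALB/c nude mice, 6–8 weeks old, received 7.5×10^6 colo320 cells subcutaneously in the right chest. Once tumors reached at least 120 mm^3 they were randomized three per group. Treatment with test agents or saline control was given once weekly for four weeks.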

[3] = system: sarcoma SJSA-1 tumor model; experiment: Efficacy in animal model of sarcoma SJSA-1, 30 mg/kg once a week for two weeks (Example 40); type: in vivo, BALB/c mice; details: for SJSA-1 (sarcoma tissue) mean tumor volume (mm^3) Day 1 / SJSA-1 (sarcoma tissue) mean tumor volume (mm^3) Day 4 / SJSA-1 (sarcoma tissue) mean tumor volume (mm^3) Day 7 / SJSA-1 (sarcoma tissue) mean tumor volume (mm^3) Day 10 / Mouse weight (%) on Day 14 / SJSA-1 (sarcoma tissue) growth rate (%) on Day 14 / SJSA-1 (sarcoma tissue) mean tumor volume (mm^3) Day 14: 30 mg/kg once a week for two weeks
Procedure: Test objective: To further compare the antitumor efficacy of different polypeptide Linkers in an animal tumor model of sarcoma SJSA-1.
(§1) Test drug: Polypeptide conjugate and normal saline control group.
The control group was administered normal saline. Administration was performed once a week for two weeks.

[4] = system: A2780 ovarian cancer tumor model; experiment: Efficacy in animal model of A2780 ovarian cancer, 30 mg/kg once a week for two weeks (Example 41); type: in vivo, BALB/c mice
Procedure: Test objective: To further compare the antitumor efficacy of different polypeptide Linkers in an animal tumor model of A2780 ovarian cancer.
as §1
8×10^6 corresponding cells were injected into right axillas of nude mice subcutaneously. […] The negative control group was administered normal saline. Administration was performed once a week for two weeks.

[5] = Tumor homogenate activation efficiency, ovarian cancer tissue (Examples 28, 37); type: in vitro ADME; details: pH 5.0, 37° C., 2 h
Method in brief: (§2)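 HPLC after 2 h at 37° C. tracks conjugate loss and Belotecan gain, with release expressed as Belotecan peak area as a fraction of all Belotecan-containing peaks. Reaction: 100 μg homogenate plus 1 mg/ml conjugate in 50 mM MES, 250 mM NaCl, pH 5.0.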

[6] = Tumor homogenate activation efficiency, sarcoma tissue (Examples 28, 37); type: in vitro ADME; details: pH 5.0, 37° C., 2 h
Method in brief: as §2

[7] = Tumor homogenate activation efficiency, breast cancer tissue (Examples 28, 37); type: in vitro ADME; details: pH 5.0, 37° C., 2 h
Method in brief: as §2

[8] = Tumor homogenate activation efficiency, non-small cell lung cancer tissue (Examples 28, 37); type: in vitro ADME; details: pH 5.0, 37° C., 2 h
Method in brief: as §2

[9] = Homogenate activation efficiency, heart tissue (Examples 28, 37); type: in vitro ADME; details: pH 5.0, 37° C., 2 h
[10] = system: colo320 (colorectal cancer tissue); experiment: cells; type: cell-based; details: CCK8, 48 h; Table 6
Method in brief: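 Colo320 cells, 5,000 per well, exposed to drug concentration series for 48 h at 37 °C, 5% CO2 (0.1% DMSO controls). Viability by CCK8, absorbance at 450 nm after about 2 h. Survival rates and IC50 calculated.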

[11] = Tumor homogenate activation efficiency, colorectal cancer tissue (Example 37); type: in vitro ADME; details: pH 5.0, 37° C., 2 h; Table 10
Procedure: Buffer preparation: 50 mM PH buffer (MES), 250 mM NaCl, pH adjusted to 5.0 with 0.5 M of sodium hydroxide.
The polypeptide conjugate was prepared into a 1 mg/ml solution with pH 5.0 buffer, 100 μg of tumor tissue homogenate was added, (the tumor tissue homogenate was the homogenate of tumor tissues prepared with a Jingxin F6/10 handheld homogenizer), and the solution was placed at 37° C. for 2 h. The tumor tissue homogenate could effectively activate the polypeptide conjugate and release Belotecan, and the activation efficiencies of the drugs in tumor tissues were compared by HPLC allowing determination of a decrease in the compounds and an increase in Belotecan:
Release percentage=peak area of Belotecan/total peak area of Belotecan and all other Belotecan-containing compounds

[12] = 15 mg/kg once a week for three weeks, Table 2
[13] = 45 mg/kg once a week for three weeks, Table 2
[14] = 15 mg/kg once a week for four weeks, Table 3
[15] = 45 mg/kg once a week for four weeks, Table 3
[16] = Table 14 (Example 43), dose 45 mg/kg, once a week for four weeks, BALB/c mice
[17] = 15 mg/kg once a week for three weeks, Table 7
[18] = 45 mg/kg once a week for three weeks, Table 7
[19] = 15 mg/kg once a week for four weeks, Table 8
[20] = 45 mg/kg once a week for four weeks, Table 8

Row | Compound | Mouse weight (%) [2, 16] | colo320 (colorectal cancer cell) growth rate (%) [2, 16] [%] | colo320 (colorectal cancer cell) mean tumor volume (mm^3) [2, 16] [mm^3] | SJSA-1 (sarcoma tissue) mean tumor volume (mm^3) Day 1 [3] [mm^3] | SJSA-1 (sarcoma tissue) mean tumor volume (mm^3) Day 4 [3] [mm^3] | SJSA-1 (sarcoma tissue) mean tumor volume (mm^3) Day 7 [3] [mm^3] | SJSA-1 (sarcoma tissue) mean tumor volume (mm^3) Day 10 [3] [mm^3] | Mouse weight (%) on Day 14 [3] | SJSA-1 (sarcoma tissue) growth rate (%) on Day 14 [3] [%] | SJSA-1 (sarcoma tissue) mean tumor volume (mm^3) Day 14 [3] [mm^3] | A2780 (ovarian cancer) mean tumor volume (mm^3) Day 1 [4] [mm^3] | A2780 (ovarian cancer) mean tumor volume (mm^3) Day 4 [4] [mm^3] | A2780 (ovarian cancer) mean tumor volume (mm^3) Day 7 [4] [mm^3] | A2780 (ovarian cancer) mean tumor volume (mm^3) Day 10 [4] [mm^3] | A2780 (ovarian cancer) mean tumor volume (mm^3) Day 14 [4] [mm^3] | Growth rate (%) of A2780 (ovarian cancer) on Day 14 [4] [%] | Mouse weight (%) on Day 14 [4] | IC50 Colorectal cancer tissue (colo320) [10] [µg/mL] | Mouse weight (%) [1, 17] | SJSA-1 (sarcoma tissue) growth rate (%) [1, 17] [%] | further results
1 | CC[C@@]1(O)C(=O)OCC2=C1C=C1c3nc4ccccc4c(CCN(C(=O)OCc4ccc(NC(=O)[C@H](CC(N)=O)NC(=O)[C@H](C)NC(=O)[C@H](C)NC(=O)CCOCCOCCOCCOCCOCCOCCNC(=O)CCN5C(=O)C=CC5=O)cc4)C(C)C)c3CN1C2 [MI-6PEG-AAN-PAB-Belotecan] | +6% | 573.97 | 635.7 | 131.25 | 208.13 | 554.02 | 706.21 | −6.9% | 1005.49 | 1319.7 | 151.03 | 282.87 | 579.35 | 837.75 | 1135.00 | 751.51 | +1.2% |  |  |  | Mouse weight (%) [1, 12]: +6%; SJSA-1 (sarcoma tissue) mean tumor volume (mm^3) [1, 12]: 1357 mm^3; SJSA-1 (sarcoma) Growth rate (%) [1, 12]: 1174.19%; Mouse weight (%) [1, 13]: −5%; SJSA-1 (sarcoma tissue) mean tumor volume (mm^3) [1, 13]: 873.5 mm^3; SJSA-1 (sarcoma) Growth rate (%) [1, 13]: 753.02%; Mouse weight (%) [2, 14]: +29%; colo320 (colorectal cancer cell) growth rate (%) [2, 14]: 1105.40%; colo320 (colorectal cancer cell) mean tumor volume (mm^3) [2, 14]: 1224.3 mm^3; Mouse weight (%) [2, 15]: +6%; colo320 (colorectal cancer cell) growth rate (%) [2, 15]: 573.97%; colo320 (colorectal cancer cell) mean tumor volume (mm^3) [2, 15]: 635.7 mm^3; tumor suppression effect (in words) ([3]; 30 mg/kg, SJSA-1 model, Example 40): neither MI-6PEG-AAGP-D2 nor MI-6PEG-AAN-PAB-Belotecan had a satisfactory tumor suppression effect; Percentage of release efficiency (%) Ovarian cancer tissue (A2780) ([5]; Table 5): 75.3%; Percentage of release efficiency (%) Sarcoma tissue (SJSA1) ([6]; Table 5): 78.5%; Percentage of release efficiency (%) Breast cancer tissue (SKBR3) ([7]; Table 5): 69.4%; Percentage of release efficiency (%) Non-small cell lung cancer tissue (A549) ([8]; Table 5): 79.9%; Percentage of release efficiency (%) Heart tissue ([9]; Table 5): 2.7%
2 | CCCN(CCc1c2c(nc3ccccc13)-c1cc3c(c(=O)n1C2)COC(=O)[C@]3(O)CC)C(=O)[C@H](CC(C)C)NC(=O)[C@H](CC(N)=O)NC(=O)[C@H](C)NC(=O)[C@H](C)NC(=O)CCOCCOCCOCCOCCOCCOCCNC(=O)CCN1C(=O)C=CC1=O [MI-6PEG-AANL-D3] ({Propanoyl(3-maleimido)-PEG6}-AANL-X4) |  |  |  | 137.17 | 436.65 | 735.18 | 1111.34 | +4.2% | 1316.37 | 1805.67 | 134.07 | 387.76 | 768.59 | 998.38 | 1508.23 | 1124.96 | +12.2% | 3.28 (≈ 2.54 µM) | +21% | 1207.54 | SJSA-1 (sarcoma tissue) mean tumor volume (mm^3) [1, 17]: 1521.5 mm^3; Mouse weight (%) [1, 18]: +16%; SJSA-1 (sarcoma tissue) growth rate (%) [1, 18]: 941.15%; SJSA-1 (sarcoma tissue) mean tumor volume (mm^3) [1, 18]: 1205.8 mm^3; Mouse weight (%) [2, 19]: +18%; colo320 (colorectal cancer cell) growth rate (%) [2, 19]: 1088.75%; colo320 (colorectal cancer cell) mean tumor volume (mm^3) [2, 19]: 1279.8 mm^3; Mouse weight (%) [2, 20]: +18%; colo320 (colorectal cancer cell) growth rate (%) [2, 20]: 641.35%; colo320 (colorectal cancer cell) mean tumor volume (mm^3) [2, 20]: 753.9 mm^3; Percentage of release efficiency (%) Ovarian cancer tissue (A2780) ([5]; Table 10): 69.5%; Percentage of release efficiency (%) Sarcoma tissue (SJSA1) ([6]; Table 10): 90%; Percentage of release efficiency (%) Breast cancer tissue (SKBR3) ([7]; Table 10): 67.9%; Percentage of release efficiency (%) Non-small cell lung cancer tissue (A549) ([8]; Table 10): 66.8%; Percentage of release efficiency (%) Colorectal cancer tissue (colo320) [11]: 71.6%; Percentage of release efficiency (%) Heart tissue ([9]; Table 10): 3.9%
3 | CCCCN(CCc1c2c(nc3ccccc13)-c1cc3c(c(=O)n1C2)COC(=O)[C@]3(O)CC)C(=O)[C@H](CC(C)C)NC(=O)[C@H](CC(N)=O)NC(=O)[C@H](C)NC(=O)[C@H](C)NC(=O)CCOCCOCCOCCOCCOCCOCCNC(=O)CCN1C(=O)C=CC1=O [MI-6PEG-AANL-D4] ({Propanoyl(3-maleimido)-PEG6}-AANL-X2) | +18% | 832.33 | 978.4 | 142.01 | 486.37 | 739.25 | 1068.21 | +2.3% | 1137.43 | 1615.26 | 133.89 | 309.51 | 703.24 | 894.45 | 1345.03 | 1004.58 | +14.5% | 5.40 (≈ 4.14 µM) | +19% | 1031.84 | SJSA-1 (sarcoma tissue) mean tumor volume (mm^3) [1, 17]: 1289.8 mm^3; Mouse weight (%) [1, 18]: +19%; SJSA-1 (sarcoma tissue) growth rate (%) [1, 18]: 924.41%; SJSA-1 (sarcoma tissue) mean tumor volume (mm^3) [1, 18]: 1149.5 mm^3; Mouse weight (%) [2, 19]: +17%; colo320 (colorectal cancer cell) growth rate (%) [2, 19]: 1081.25%; colo320 (colorectal cancer cell) mean tumor volume (mm^3) [2, 19]: 1271.1 mm^3; Mouse weight (%) [2, 20]: +18%; colo320 (colorectal cancer cell) growth rate (%) [2, 20]: 832.33%; colo320 (colorectal cancer cell) mean tumor volume (mm^3) [2, 20]: 978.4 mm^3; Percentage of release efficiency (%) Ovarian cancer tissue (A2780) ([5]; Table 10): 66.7%; Percentage of release efficiency (%) Sarcoma tissue (SJSA1) ([6]; Table 10): 81.2%; Percentage of release efficiency (%) Breast cancer tissue (SKBR3) ([7]; Table 10): 75.3%; Percentage of release efficiency (%) Non-small cell lung cancer tissue (A549) ([8]; Table 10): 77.7%; Percentage of release efficiency (%) Colorectal cancer tissue (colo320) [11]: 76.5%; Percentage of release efficiency (%) Heart tissue ([9]; Table 10): 4%
